For the test, the system named is P388 leukemia ip, CD2F1 mice, survival T/C. The test can be described thus: NCI In Vivo Anticancer Drug Screen. Data for tumor model P388 Leukemia (intraperitoneal) in CD2F1 (CDF1) mice. As to conditions: endpoint: median survival time, higher = longer survival. In short, it runs like this: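 Mice carrying the transplanted tumor received test compound or vehicle. Survival was recorded in each group, and the value is the treated-group measurement divided by that of the vehicle-treated control group.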

The mark [1] stands for this setting: dose: 100.0 mg/kg/injection, schedule: Q01DX001 (ip), vehicle: Klucel (hydroxypropylcellulose) (HPC).
Where [2] appears, read: dose: 200.0 mg/kg/injection, schedule: Q01DX001 (ip), vehicle: Klucel (hydroxypropylcellulose) (HPC).
The mark [3] stands for this setting: dose: 50.0 mg/kg/injection, schedule: Q01DX009 (ip), vehicle: saline.
The mark [4] stands for this setting: dose: 100.0 mg/kg/injection, schedule: Q01DX009 (ip), vehicle: saline.
Setting [5] is: dose: 200.0 mg/kg/injection, schedule: Q01DX009 (ip), vehicle: saline.
Setting [6] is: dose: 60.0 mg/kg/injection, schedule: Q01DX005 (ip), vehicle: Klucel (hydroxypropylcellulose) (HPC).
Where [7] appears, read: dose: 120.0 mg/kg/injection, schedule: Q01DX005 (ip), vehicle: Klucel (hydroxypropylcellulose) (HPC).
Setting [8] is: dose: 240.0 mg/kg/injection, schedule: Q01DX005 (ip), vehicle: Klucel (hydroxypropylcellulose) (HPC).
The mark [9] stands for this setting: dose: 60.0 mg/kg/injection, schedule: Q01DX005 (ip), vehicle: saline with Tween-80.
Where [10] appears, read: dose: 120.0 mg/kg/injection, schedule: Q01DX005 (ip), vehicle: saline with Tween-80.
Where [11] appears, read: dose: 240.0 mg/kg/injection, schedule: Q01DX005 (ip), vehicle: saline with Tween-80.
Setting [12] is: dose: 100.0 mg/kg/injection, schedule: Q01DX009 (ip), vehicle: Klucel (hydroxypropylcellulose) (HPC).
Where [13] appears, read: dose: 200.0 mg/kg/injection, schedule: Q01DX009 (ip), vehicle: Klucel (hydroxypropylcellulose) (HPC).
[14] abbreviates: dose: 6.25 mg/kg/injection, schedule: Q01DX005 (ip), vehicle: saline.
[15] abbreviates: dose: 12.5 mg/kg/injection, schedule: Q01DX005 (ip), vehicle: saline.
The mark [16] stands for this setting: dose: 25.0 mg/kg/injection, schedule: Q01DX005 (ip), vehicle: saline.
The mark [17] stands for this setting: dose: 50.0 mg/kg/injection, schedule: Q01DX005 (ip), vehicle: saline with Tween-80.
[18] abbreviates: dose: 100.0 mg/kg/injection, schedule: Q01DX005 (ip), vehicle: saline with Tween-80.
Where [19] appears, read: dose: 200.0 mg/kg/injection, schedule: Q01DX005 (ip), vehicle: saline with Tween-80.

Values joined by “and” are separate entries in the source; they are usually repeats but may differ in a detail not shown here. Identical values can stand only once. Toxic doses and inconclusive results are not listed.

For `Cc1nnc2cccc(Cl)n12`, the T/C by setting is: (dose: 50.0 mg/kg/injection, schedule: Q01DX001 (ip), vehicle: Klucel (hydroxypropylcellulose) (HPC)) 106 % of control; under setting [1], 106 % of control; under setting [2], 99 % of control.
As for `CC1=C2CC3CCC(C)C2(CC1)C3(C)C` (centres undefined), the T/C reads like this: under setting [3], 98 % of control; under setting [4], 95 % of control; (dose: 100.0 mg/kg/injection, schedule: Q04DX003 (ip), vehicle: saline) 95 % of control; under setting [5], 95 % of control; (dose: 200.0 mg/kg/injection, schedule: Q04DX003 (ip), vehicle: saline) 95 % of control; (dose: 400.0 mg/kg/injection, schedule: Q04DX003 (ip), vehicle: saline) 100 % of control.
As to `Oc1ccc(O)c2nc3ccccc3nc12`, the T/C is 104 % of control (dose: 1.56 mg/kg/injection, schedule: Q01DX009 (ip), vehicle: distilled water + Tween-80); 105 % of control (dose: 3.12 mg/kg/injection, schedule: Q01DX009 (ip), vehicle: distilled water + Tween-80); 104 % of control and 97 % of control (dose: 6.25 mg/kg/injection, schedule: Q01DX009 (ip), vehicle: distilled water + Tween-80).
For `CC/C(=N\Nc1cc(C)[nH]c(=O)c1)c1ccccc1`, the T/C by setting is: (dose: 100.0 mg/kg/injection, schedule: Q01DX001 (ip), vehicle: saline with Tween-80) 98 % of control; (dose: 200.0 mg/kg/injection, schedule: Q01DX001 (ip), vehicle: saline with Tween-80) 86 % of control; (dose: 400.0 mg/kg/injection, schedule: Q01DX001 (ip), vehicle: saline with Tween-80) 89 % of control.
Turning to `CCc1nc2c(Br)c3oc(CC)nc3c(Br)c2o1`, the T/C is 103 % of control under setting [6], 100 % of control under setting [7] and 90 % of control under setting [8].
Consider `NCCC1C2CC3CC(C2)CC1C3` (centres undefined), for which the T/C is 88 % of control under setting [3] and 88 % of control under setting [4].
As for `COc1ccc2cc3c(nc2c1N)C(=O)C(N1CC1)=C(N1CC1)C3=O`, the T/C runs as follows: (dose: 25.0 mg/kg/injection, schedule: Q01DX005 (ip), vehicle: Klucel (hydroxypropylcellulose) (HPC)) 98 % of control; (dose: 50.0 mg/kg/injection, schedule: Q01DX005 (ip), vehicle: Klucel (hydroxypropylcellulose) (HPC)) 99 % of control; (dose: 100.0 mg/kg/injection, schedule: Q01DX005 (ip), vehicle: Klucel (hydroxypropylcellulose) (HPC)) 100 % of control; (dose: 200.0 mg/kg/injection, schedule: Q01DX005 (ip), vehicle: Klucel (hydroxypropylcellulose) (HPC)) 100 % of control.
As to `COC(=O)c1cc(OC)c2cccnc2c1Nc1ccccc1`, the T/C by setting is: under setting [9], 102 % of control; under setting [10], 102 % of control; under setting [11], 100 % of control.
Consider `CC(C)(C)c1cc(-n2nc3ccccc3[n+]2[O-])c(O)c(C(C)(C)C)c1`, for which the T/C was 100 % of control under setting [9], 94 % of control under setting [10] and 91 % of control under setting [11].
Turning to `O=Cc1c(Br)n(-c2ccccc2)c2ccccc12`, the T/C runs as follows: under setting [1], 102 % of control; under setting [2], 100 % of control; (dose: 400.0 mg/kg/injection, schedule: Q01DX001 (ip), vehicle: Klucel (hydroxypropylcellulose) (HPC)) 100 % of control.
As for `COc1cccc(/C=C2\CCc3ccccc3C2=O)c1OC`, the T/C reads like this: (dose: 50.0 mg/kg/injection, schedule: Q01DX009 (ip), vehicle: Klucel (hydroxypropylcellulose) (HPC)) 119 % of control; under setting [12], 106 % of control; under setting [13], 110 % of control.
Regarding `[Ni].c1c[nH]cn1.c1c[nH]cn1.c1c[nH]cn1.c1c[nH]cn1.c1c[nH]cn1.c1c[nH]cn1`, the T/C is, setting by setting: under setting [14], 92 % of control; under setting [15], 86 % of control; under setting [16], 87 % of control; (dose: 50.0 mg/kg/injection, schedule: Q01DX005 (ip), vehicle: saline) 100 % of control.
For `Cc1[nH]ccc2c(C)c3nc4ccc(O)cc4c3cc12`, the T/C (dose: 40.0 mg/kg/injection, schedule: Q04DX002 (ip), vehicle: water) is 157 % of control.
As for `NC(CC1C=CCCC1)C(=O)O` (centres undefined), the T/C is, setting by setting: under setting [6], 98 % of control; under setting [7], 98 % of control; under setting [8], 95 % of control.
In the case of `N#CC1OC1c1cccc[n+]1[O-]` (centres undefined), the T/C is, setting by setting: (dose: 6.25 mg/kg/injection, schedule: Q01DX005 (ip), vehicle: saline with Tween-80) 98 % of control; under setting [14], 104 % of control; (dose: 12.5 mg/kg/injection, schedule: Q01DX005 (ip), vehicle: saline with Tween-80) 98 % of control; under setting [15], 96 % of control; under setting [16], 102 % of control.
Consider `FC(F)(F)C(OP(OC(C(F)(F)F)C(F)(F)F)OC(C(F)(F)F)C(F)(F)F)C(F)(F)F`, for which the T/C under setting [17] is 101 % of control, the T/C under setting [18] is 92 % of control and the T/C under setting [19] was 92 % of control.
As for `CC1Cc2c([nH]c3ccccc3c2=O)O1` (centres undefined), the T/C is, setting by setting: under setting [3], 93 % of control; under setting [4], 101 % of control; under setting [5], 100 % of control.
As for `CSc1ncc(CO)c(N)n1`, the T/C (dose: 100.0 mg/kg/injection, schedule: Q04DX003 (ip), vehicle: Klucel (hydroxypropylcellulose) (HPC)) is 90 % of control; the T/C (dose: 200.0 mg/kg/injection, schedule: Q04DX003 (ip), vehicle: Klucel (hydroxypropylcellulose) (HPC)) was 95 % of control; the T/C (dose: 400.0 mg/kg/injection, schedule: Q04DX003 (ip), vehicle: Klucel (hydroxypropylcellulose) (HPC)) was 95 % of control.
Take `CN(C)CCSC1=Nc2ccc(Cl)cc2C(c2ccccc2Cl)N(C)C1` (centres undefined): the T/C under setting [6] is 100 % of control and the T/C under setting [7] was 100 % of control.
Consider `CCOC(=O)NC(N)=O`, for which the T/C (dose: 50.0 mg/kg/injection, schedule: Q01DX009 (ip), vehicle: saline with Tween-80) was 91 % of control; the T/C (dose: 100.0 mg/kg/injection, schedule: Q01DX009 (ip), vehicle: saline with Tween-80) was 89 % of control; the T/C (dose: 200.0 mg/kg/injection, schedule: Q01DX009 (ip), vehicle: saline with Tween-80) is 89 % of control; the T/C (dose: 400.0 mg/kg/injection, schedule: Q01DX009 (ip), vehicle: saline with Tween-80) is 97 % of control.
Consider `CCC[CH2][Sn]1([CH2]CCC)[O]C2C(OC)OC3COC(c4ccccc4)OC3C2[O]1` (centres undefined), for which the T/C is, setting by setting: (dose: 12.5 mg/kg/injection, schedule: Q04DX003 (ip), vehicle: saline) 105 % of control; (dose: 25.0 mg/kg/injection, schedule: Q04DX003 (ip), vehicle: saline) 110 % of control; (dose: 50.0 mg/kg/injection, schedule: Q04DX003 (ip), vehicle: saline) 112 % of control.
On to `Nc1c(Br)cc(Br)c2c1C(=O)c1c(cccc1S(=O)(=O)O)C2=O`, for which the T/C runs as follows: under setting [17], 102 % of control; under setting [18], 98 % of control; under setting [19], 107 % of control.
`O=C(Cc1ccccn1)c1ccccc1`: the T/C runs as follows: under setting [12], 109 % of control; under setting [13], 108 % of control; (dose: 400.0 mg/kg/injection, schedule: Q01DX009 (ip), vehicle: Klucel (hydroxypropylcellulose) (HPC)) 110 % of control.
Regarding `CCOC(=O)C1=C(C)Oc2cc3c(cc2C1c1cc(OC)c(OC)c(OC)c1)OCO3` (centres undefined), the T/C is 97 % of control under setting [9], 98 % of control under setting [10] and 94 % of control under setting [11].
For the compound `C=C(C)c1ccc([Si](C)(C)C)cc1`, the T/C under setting [3] was 104 % of control, the T/C under setting [4] is 101 % of control and the T/C under setting [5] was 109 % of control.
Take `CC(C)(C)OP(=S)(OC(C)(C)C)OC(C)(C)C`: the T/C by setting is: (dose: 100.0 mg/kg/injection, schedule: Q04DX002 (ip), vehicle: saline with Tween-80) 96 % of control; (dose: 200.0 mg/kg/injection, schedule: Q04DX002 (ip), vehicle: saline with Tween-80) 108 % of control; (dose: 400.0 mg/kg/injection, schedule: Q04DX002 (ip), vehicle: saline with Tween-80) 106 % of control.
In the case of `O=C1C=CC(Nc2ccccc2[N+](=O)[O-])C1Nc1ccccc1[N+](=O)[O-]` (centres undefined), the T/C was 114 % of control under setting [9] and 113 % of control under setting [10].

(Values after PubChem BioAssay AID330 (DTP/NCI, 2004).)
